# From patent publication US6376426B1, “Herbicidal 3-(heterocycl-1-yl)-uracils” (BASF Aktiengesellschaft, priority 1999, dated 2002)
# Key:
# Type in all cases: in vivo
# Zea mays [1] = assay: Pre-emergence herbicidal test, ZEAMX; parameters: key to herbicidal effect (0-9 scale) ZEAMX / herbicidal rating ZEAMX: A rating 0 indicates growth as untreated control; a rating 9 indicates death; conditions: for herbicidal rating ZEAMX: PRE, 0-9 scale, 21 days after spraying
# Glycine max [2] = assay: Pre-emergence herbicidal test, GLXMA; parameters: key to herbicidal effect (0-9 scale) GLXMA / herbicidal rating GLXMA: A rating 0 indicates growth as untreated control; a rating 9 indicates death; conditions: for herbicidal rating GLXMA: PRE, 0-9 scale, 21 days after spraying
# Alopecurus myosuroides [3] = assay: Pre-emergence herbicidal test, ALOMY; parameters: key to herbicidal effect (0-9 scale) ALOMY / herbicidal rating ALOMY: A rating 0 indicates growth as untreated control; a rating 9 indicates death; conditions: PRE, 0-9 scale, 21 days after spraying
# Ipomoea hederacea = assay: Pre-emergence herbicidal test, IPOHE; parameters: key: A rating 0 indicates growth as untreated control; a rating 9 indicates death; conditions: 0-9 scale, 21 days after spraying
# Galium aparine [4] = assay: Pre-emergence herbicidal test, GALAP; parameters: key to herbicidal effect (0-9 scale) GALAP / herbicidal rating GALAP: A rating 0 indicates growth as untreated control; a rating 9 indicates death; conditions: for herbicidal rating GALAP: PRE, 0-9 scale, 21 days after spraying
# Stellaria media [5] = assay: Pre-emergence herbicidal test, STEME; parameters: key to herbicidal effect (0-9 scale) STEME / herbicidal rating STEME: A rating 0 indicates growth as untreated control; a rating 9 indicates death; conditions: for herbicidal rating STEME: PRE, 0-9 scale, 21 days after spraying
# Matricaria inodora = assay: Pre-emergence herbicidal test, MATIN; parameters: key to herbicidal effect (0-9 scale) MATIN / herbicidal rating MATIN: A rating 0 indicates growth as untreated control; a rating 9 indicates death; conditions: for herbicidal rating MATIN: PRE, 0-9 scale, 21 days after spraying
# Zea mays [6] = assay: Post-emergence herbicidal test, ZEAMX; parameters: key: A rating 0 indicates growth as untreated control; a rating 9 indicates death; conditions: 0-9 scale, 21 days after spraying
# Method in brief: (§1)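 Herbicidal effect is recorded on a linear 0-9 scale, where 0 means growth like untreated control and 9 means death, with one unit approximating 10% more effect.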
# Glycine max [7] = assay: Post-emergence herbicidal test, GLXMA; parameters: key: A rating 0 indicates growth as untreated control; a rating 9 indicates death; conditions: 0-9 scale, 21 days after spraying
# Method in brief: as §1
# Setaria viridis = assay: Post-emergence herbicidal test, SETVI; parameters: key to herbicidal effect (0-9 scale) SETVI / herbicidal rating SETVI: A rating 0 indicates growth as untreated control; a rating 9 indicates death; conditions: POST, 0-9 scale, 21 days after spraying
# Method in brief: as §1
# Echinochloa crus-galli = assay: Post-emergence herbicidal test, ECHCG; parameters: key: A rating 0 indicates growth as untreated control; a rating 9 indicates death; conditions: 0-9 scale, 21 days after spraying
# Method in brief: as §1
# Alopecurus myosuroides [8] = assay: Post-emergence herbicidal test, ALOMY; parameters: key: A rating 0 indicates growth as untreated control; a rating 9 indicates death; conditions: 0-9 scale, 21 days after spraying
# Method in brief: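 Test plants in pots received water-diluted acetone formulations by post-emergence spraying, dosed near 100-1000 g/ha.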
# Galium aparine [9] = assay: Post-emergence herbicidal test, GALAP; parameters: key to herbicidal effect (0-9 scale) GALAP / herbicidal rating GALAP: A rating 0 indicates growth as untreated control; a rating 9 indicates death; conditions: for herbicidal rating GALAP: POST, 0-9 scale, 21 days after spraying
# Method in brief: as §1
# Abutilon theophrasti = assay: Post-emergence herbicidal test, ABUTH; parameters: key to herbicidal effect (0-9 scale) ABUTH / herbicidal rating ABUTH: A rating 0 indicates growth as untreated control; a rating 9 indicates death; conditions: for herbicidal rating ABUTH: POST, 0-9 scale, 21 days after spraying
# Method in brief: as §1
# Stellaria media [10] = assay: Post-emergence herbicidal test, STEME; parameters: key to herbicidal effect (0-9 scale) STEME / herbicidal rating STEME: A rating 0 indicates growth as untreated control; a rating 9 indicates death; conditions: for herbicidal rating STEME: POST, 0-9 scale, 21 days after spraying
# Method in brief: as §1
# [11] = test system: representative range of plants; assay: Herbicidal activity, pre- and post-emergence, overall; conditions: both in pre- and post-emergence
# Experimental: To evaluate their herbicidal activity, compounds according to the invention are tested using a representative range of plants:
# The pre-emergence tests involve spraying a liquid formulation of the compound onto the soil in which the seeds of the plant species mentioned above has recently been sown.
# The soil used in the tests is a prepared horticultural loam. The formulations used in the tests are prepared from solutions of the test compounds in acetone containing 0.4% by weight of an alkylphenol/ethylene oxide condensate available under the trade mark TRITON X-155. These acetone solutions are diluted with water and the resulting formulations applied at dosage levels corresponding to 1000 g and 250 g/ha of active material per hectare in a volume equivalent to 900 litres per hectare. In these tests untreated sown soil are used as controls.
# These acetone solutions are diluted with water and the resulting formulations applied at dosage levels equivalent to about 1000, 800, 400, 250 or 100 g/ha per hectare of test compound per pot. After spraying, the plants are placed on greenhouse benches and are cared for in the usual manner, commensurate with conventional greenhouse practices.
# The herbicidal effects of the test compounds are assessed visually twenty-one days after spraying the foliage and the soil and are recorded on a 0-9 scale. A rating 0 indicates growth as untreated control, a rating 9 indicates death. An increase of 1 unit on the linear scale approximates to a 10% increase in the level of effect.
structure (smiles),measurement,setting,value
"Cn1c(C(F)(F)F)cc(=O)n(-n2ccc3c(Cl)cccc32)c1=O [Example 169, 3-(4-Chloro-indol-1-yl)-1-methyl-6-trifluoromethylpyrimidine-2,4-dione]",herbicidal rating ZEAMX,Zea mays [1]; 12.5 g/ha,0
same,herbicidal rating ZEAMX,Zea mays [1]; 25 g/ha,1
same,herbicidal rating ZEAMX,Zea mays [1]; 100 g/ha,3
same,herbicidal rating ZEAMX,Zea mays [1]; 400 g/ha,7
same,selectivity in maize,"Zea mays [1]; pre-emergence, 25 g/ha",Surprisingly good selectivity
same,herbicidal rating GLXMA,Glycine max [2]; 12.5 g/ha,0
same,herbicidal rating GLXMA,Glycine max [2]; 25 g/ha,0
same,herbicidal rating GLXMA,Glycine max [2]; 100 g/ha,3
same,herbicidal rating GLXMA,Glycine max [2]; 400 g/ha,5
same,selectivity in soy beans,"Glycine max [2]; pre-emergence, 25 g/ha",Surprisingly good selectivity
same,herbicidal rating ALOMY,Alopecurus myosuroides [3]; 12.5 g/ha,2
same,herbicidal rating ALOMY,Alopecurus myosuroides [3]; 25 g/ha,5
same,herbicidal rating ALOMY,Alopecurus myosuroides [3]; 100 g/ha,7
same,herbicidal rating ALOMY,Alopecurus myosuroides [3]; 400 g/ha,9
same,herbicidal rating IPOHE,Ipomoea hederacea; 12.5 g/ha,2
same,herbicidal rating IPOHE,Ipomoea hederacea; 25 g/ha,4
same,herbicidal rating IPOHE,Ipomoea hederacea; 100 g/ha,8
same,herbicidal rating IPOHE,Ipomoea hederacea; 400 g/ha,9
same,herbicidal rating GALAP,Galium aparine [4]; 12.5 g/ha,7
same,herbicidal rating GALAP,Galium aparine [4]; 25 g/ha,8
same,herbicidal rating GALAP,Galium aparine [4]; 100 g/ha,9
same,herbicidal rating GALAP,Galium aparine [4]; 400 g/ha,9
same,control of Galium,"Galium aparine [4]; pre-emergence, 25 g/ha",good control
same,herbicidal rating STEME,Stellaria media [5]; 12.5 g/ha,6
same,herbicidal rating STEME,Stellaria media [5]; 25 g/ha,8
same,herbicidal rating STEME,Stellaria media [5]; 100 g/ha,9
same,herbicidal rating STEME,Stellaria media [5]; 400 g/ha,9
same,control of Stellaria,"Stellaria media [5]; pre-emergence, 25 g/ha",good control
same,herbicidal rating MATIN,Matricaria inodora; 12.5 g/ha,8
same,herbicidal rating MATIN,Matricaria inodora; 25 g/ha,8
same,herbicidal rating MATIN,Matricaria inodora; 100 g/ha,9
same,herbicidal rating MATIN,Matricaria inodora; 400 g/ha,9
same,control of Matricaria,"Matricaria inodora; pre-emergence, 25 g/ha",good control
same,herbicidal rating ZEAMX,Zea mays [6]; 25 g/ha,0
same,herbicidal rating ZEAMX,Zea mays [6]; 100 g/ha,3
same,herbicidal rating ZEAMX,Zea mays [6]; 400 g/ha,5
same,herbicidal rating GLXMA,Glycine max [7]; 25 g/ha,5
same,herbicidal rating GLXMA,Glycine max [7]; 100 g/ha,7
same,herbicidal rating GLXMA,Glycine max [7]; 400 g/ha,9
same,herbicidal rating SETVI,Setaria viridis; 25 g/ha,6
same,herbicidal rating SETVI,Setaria viridis; 100 g/ha,9
same,herbicidal rating SETVI,Setaria viridis; 400 g/ha,9
same,herbicidal rating ECHCG,Echinochloa crus-galli; 25 g/ha,5
same,herbicidal rating ECHCG,Echinochloa crus-galli; 100 g/ha,9
same,herbicidal rating ECHCG,Echinochloa crus-galli; 400 g/ha,9
same,herbicidal rating ALOMY,Alopecurus myosuroides [8]; 25 g/ha,2
same,herbicidal rating ALOMY,Alopecurus myosuroides [8]; 100 g/ha,6
same,herbicidal rating ALOMY,Alopecurus myosuroides [8]; 400 g/ha,9
same,herbicidal rating GALAP,Galium aparine [9]; 25 g/ha,9
same,herbicidal rating GALAP,Galium aparine [9]; 100 g/ha,9
same,herbicidal rating GALAP,Galium aparine [9]; 400 g/ha,9
same,control of Galium,"Galium aparine [9]; post-emergence, 12.5 g/ha",excellent control
same,herbicidal rating ABUTH,Abutilon theophrasti; 25 g/ha,9
same,herbicidal rating ABUTH,Abutilon theophrasti; 100 g/ha,9
same,herbicidal rating ABUTH,Abutilon theophrasti; 400 g/ha,9
same,control of Abutilon,"Abutilon theophrasti; post-emergence, 12.5 g/ha",excellent control
same,herbicidal rating STEME,Stellaria media [10]; 25 g/ha,8
same,herbicidal rating STEME,Stellaria media [10]; 100 g/ha,9
same,herbicidal rating STEME,Stellaria media [10]; 400 g/ha,9
same,control of Stellaria,"Stellaria media [10]; post-emergence, 12.5 g/ha",excellent control
same,herbicidal performance,[11],excellent performance
